PubChem BioAssay AID2743 (NMMLSC, 2010)
Active and inactive are the calls of the source.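 How the source made its calls: active means fitted half-maximal concentration for change in GFP expression of 33 µM or less; inactive means the rest.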

Test: concentration-dependent AGP1-GFP change, TOR pathway – cell-based, flow cytometry, S. cerevisiae, MLPCN hits, dose response (AID 2743)
Details: S. cerevisiae AGP1-GFP strain, flow cytometry GFP, 3 h; at 33 µM (top of the series)

| Structure (SMILES) | GFP fluorescence (kMESF) |
| --- | --- |
| Cc1ccccc1[C@@]1(C)ON(c2ccccc2C(F)(F)F)C1=O | 29.8 kMESF (inactive) |
| CC(=O)CSc1ncnc2c1cnn2-c1ccccc1 | 38.5 kMESF (inactive) |
| O=C(Nc1nc(-c2ccccn2)cs1)C1COc2ccccc2O1 (configuration not stated) | 26.3 kMESF (inactive) |
| O=[N+]([O-])c1c(Nc2ccccn2)cc(Cl)c2nonc12 | 26.8 kMESF (inactive) |
| COc1ccccc1NC1=C(Cl)C(=O)N(c2ccccc2)C1=O | 33 kMESF (inactive) |
| CCOC(=O)c1ccc(N=Cc2nc(-c3ccccc3)oc2OC(C)=O)cc1 | 33.5 kMESF (inactive) |
| CC(C)[C@@]1(c2ccc(Cl)cc2)ON(c2ccccc2C(F)(F)F)C1=O | 40.5 kMESF (inactive) |
| CCOC(=O)CSC1=NC(=O)/C(=C/c2ccc(Br)cc2)S1 | 37 kMESF (inactive) |
| C[n+]1ccc(/C=C/c2c[nH]c3ccccc23)cc1 | 44 kMESF (inactive) |
| O=[N+]([O-])c1ccc(Sc2nc3ccccc3o2)c([N+](=O)[O-])c1 | 37.2 kMESF (inactive) |
| Cc1nn2c(NCc3ccccn3)c3c(nc2c1-c1ccccc1)CCC3 | 40.6 kMESF (inactive) |
| O=C(NNC(=S)NC(=O)C12CC3CC(CC(C3)C1)C2)c1ccncc1 | 33.2 kMESF (inactive) |
| CCOC(=O)c1c(C)oc2c1c(C(c1ccncc1)N1CCOCC1)c(O)c1ccccc12 (configuration not stated) | 21.4 kMESF (inactive) |
| Cc1nn2c(-c3ccncc3)nnc2c2ccccc12 | 22.9 kMESF (inactive) |
| COc1ccc(-c2cc(C(F)(F)F)nc(S(C)(=O)=O)n2)cc1 | 36 kMESF (inactive) |
| N#Cc1nccnc1S(=O)(=O)c1cccs1 | 38.7 kMESF (inactive) |
| O=C(Nc1nnc(-c2ccc(Cl)cc2)o1)c1ccccc1Br | 28.4 kMESF (inactive) |
| CC1=C(C)/C(=N\OS(=O)(=O)c2ccccc2)C=CC1=O | 41.6 kMESF (inactive) |
| CCn1c(=O)c(C(C)=O)c(O)c2ccccc21 | 41.4 kMESF (inactive) |
| CCN(CC)c1ccc2cc(-c3nc4ccccc4[nH]3)c(=O)oc2c1 | 48.4 kMESF (inactive) |
| O=C1NC(=S)NC(=O)C1=Cc1ccc2c(c1)CCN2CCCCl | 35 kMESF (inactive) |
| CCOC(=O)CS(=O)(=O)c1nc(-c2ccc(F)cc2)cc(C(F)(F)F)n1 | 50.7 kMESF (inactive) |
| Cc1ccc(NC(=O)c2ccc(Cl)c(N3C(=O)C=CC3=O)c2)cc1 | 27.1 kMESF (inactive) |

| Structure (SMILES) | GFP fluorescence (kMESF) |
| --- | --- |
| O=[N+]([O-])c1cnc(Sc2ccncn2)s1 | 33.9 kMESF (inactive) |
| CN(C)c1ccc(N=Cc2nc(-c3ccccc3)oc2OC(=O)c2cccc(Cl)c2)cc1 | 30.1 kMESF (inactive) |
| CCN(CC)c1ccc(/C=C2\C(=O)c3ccc(C(=O)O)cc3C2=O)cc1 | 747 kMESF (inactive) |
| Cc1ccc(C(=O)O)cc1N=Cc1cc(Br)cc(Br)c1O | 27.3 kMESF (inactive) |
| COc1cc(N=c2ssnc2Cl)cc(OC)c1 | 38.8 kMESF (inactive) |
| O=C(Oc1oc(-c2ccco2)nc1C=Nc1ccccc1)c1ccoc1 | 44.7 kMESF (inactive) |
| CCCCCCCCCCCCCCCC[n+]1cccc2ccccc21 | 2.67 kMESF (inactive) |
| CCC(=O)Nc1ccc(NC(=O)c2cc3ccccc3o2)cc1 | 43.4 kMESF (inactive) |
| C=CCN1C(=O)/C(=C/c2cccs2)C(=O)NC1=S | 20.4 kMESF (inactive) |
| Oc1ccc(Br)cc1/C=N/Nc1ccccn1 | 36.6 kMESF (inactive) |
| Cc1cc(C)nc(S/C=C/C(=O)c2ccccc2)n1 | 44.8 kMESF (inactive) |
| Cc1ccc(/C=C/C(=O)c2ccccc(=O)c2O)c(C)c1 | 28.9 kMESF (inactive) |
| CC(C)Oc1ccc(C(=O)/C=C2/C(=O)Nc3ccccc32)cc1 | 46.3 kMESF (inactive) |
| CCCCC1OC23CCCCC2C(C#N)(C(=N)O3)C1(C#N)C#N (configuration not stated) | 43.3 kMESF (inactive) |
| O=C(NC(=S)NNC(=O)[C@H]1C[C@@H]1c1ccccc1)c1cccc(F)c1 | 30.4 kMESF (inactive) |
| Oc1c(I)cc(Cl)c2cccnc12 | 25 kMESF (inactive) |
| O=C(Nc1ccc(N2CCOCC2)cc1)C1CCN(S(=O)(=O)c2ccc3c(c2)OCCO3)CC1 | 34 kMESF (inactive) |
| CCCCOc1ccc(C(=O)NNC(=S)NC(=O)CC)cc1 | 39.6 kMESF (inactive) |
| COc1cccc(/C=N/Nc2ccc([N+](=O)[O-])cn2)c1O | 29.3 kMESF (inactive) |
| COc1cccc(/C=N/Nc2ncc(C(F)(F)F)cc2Cl)c1O | 34.3 kMESF (inactive) |
| COc1ccc(N=Cc2nc(-c3ccccc3)oc2OC(=O)c2ccccc2)cc1 | 39.5 kMESF (inactive) |
| CC1=C/C(=N\OS(=O)(=O)c2ccccc2)C(C)=CC1=O | 34.7 kMESF (inactive) |
| CCOc1ccc(C(Nc2cccnc2)c2cc(Cl)c3cccnc3c2O)cc1 (configuration not stated) | 36.3 kMESF (inactive) |

| Structure (SMILES) | GFP fluorescence (kMESF) |
| --- | --- |
| COc1cccc(C(=O)Nc2nnc(-c3ccc(Cl)cc3)o2)c1 | 34.6 kMESF (inactive) |
| Cc1ccc(S(=O)(=O)Cc2cc(F)c([N+](=O)[O-])cc2[N+](=O)[O-])cc1 | 37 kMESF (inactive) |
| O=c1oc2ccccc2c(O)c1[C@H]1c2ccc(O)cc2Oc2c1c(=O)oc1ccccc21 | 36.3 kMESF (inactive) |
| N=C1S/C(=C\c2ccco2)C(=O)N1c1nccs1 | 40.4 kMESF (inactive) |
| COc1ccc(NC(=O)/C(C#N)=C/c2ncc([N+](=O)[O-])n2C)c(OC)c1 | 45.2 kMESF (inactive) |
| Cc1cccc(OCCN2CSC(=S)N(C)C2)c1 | 46.6 kMESF (inactive) |
| O=C(COc1ccc(F)cc1Cl)Nc1nc(-c2ccccn2)cs1 | 33.9 kMESF (inactive) |
| CCCc1cc(N2CCN(c3ccccn3)CC2)n2nc(C)c(-c3ccccc3)c2n1 | 38.8 kMESF (inactive) |
| O=C(Cc1ccc(Cl)cc1)NNC(=S)NC(=O)c1cccs1 | 36.9 kMESF (inactive) |
| O=C1C(Cl)=C(Nc2ccccc2O)C(=O)N1CCc1ccccc1 | 39.3 kMESF (inactive) |
| Cc1ccc(/C=c2\sc3nc(-c4cccs4)nn3c2=O)o1 | 42.1 kMESF (inactive) |
| CCOc1ccccc1/C=c1\sc2ncnn2c1=O | 39.5 kMESF (inactive) |
| Cc1ccc(-c2nn(C(C)(C)C)c3ncnc(N)c23)cc1 | 40.2 kMESF (inactive) |
| NC(=O)COc1ccc(C(=O)/C=C2/C(=O)Nc3ccccc32)cc1 | 46.2 kMESF (inactive) |
| Cc1ccc(C)c(/C=C/C(=O)c2ccccc(=O)c2O)c1 | 10.5 kMESF (inactive) |
| O=c1c2cnn(-c3ccccc3)c2ncn1Cc1ccco1 | 29.6 kMESF (inactive) |
| O=[N+]([O-])c1cc(F)c2cccnc2c1O | 43.3 kMESF (inactive) |
| CC(C)(C)c1ccc(NC(=O)COC(=O)c2ccc([N+](=O)[O-])s2)cc1 | 14.7 kMESF (inactive) |
| COCCN1C(=O)/C(=C/c2ccc(N3CCCC3)cc2C)SC1=S | 44.5 kMESF (inactive) |
| COc1cc(SSc2cc(OC)cc([N+](=O)[O-])c2N)c(N)c([N+](=O)[O-])c1 | 48.9 kMESF (inactive) |
| O=c1c2sc(-c3ccccc3)cc2nc2n1CCC2 | 25 kMESF (inactive) |
